Measured values published in paper PMC3828927, “Heterotropic Effect of β-lactam Antibiotics on Antioxidant Property of Haptoglobin (2-2)-Hemoglobin Complex” (Iranian Journal of Pharmaceutical Research : IJPR, 2011).

Target: T1, Hp (2-2)-Hb complex (Homo sapiens, UniProt P68871+P69905)
T1 construct: gene HBA1; with Haptoglobin
Assay: guaiacol peroxidase assay, A470, clearance plot
Type: biochemical
Details: activator (heterotropic); binding site not shown; varied H2O2, 0.03 M guaiacol, 64 nM complex, 50 mM phosphate pH 7.5, 37 C

T1 sequence (P69905 2-142): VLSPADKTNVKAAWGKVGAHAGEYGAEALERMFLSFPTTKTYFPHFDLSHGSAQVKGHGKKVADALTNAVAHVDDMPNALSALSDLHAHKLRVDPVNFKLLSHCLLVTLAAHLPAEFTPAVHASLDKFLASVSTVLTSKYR
T1 sequence (P68871 2-147): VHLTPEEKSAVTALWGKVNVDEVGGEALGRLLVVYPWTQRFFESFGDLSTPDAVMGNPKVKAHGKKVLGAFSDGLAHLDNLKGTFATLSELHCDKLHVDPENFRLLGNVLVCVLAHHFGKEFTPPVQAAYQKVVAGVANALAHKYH
T1 sequence (P00738 19-160 partner): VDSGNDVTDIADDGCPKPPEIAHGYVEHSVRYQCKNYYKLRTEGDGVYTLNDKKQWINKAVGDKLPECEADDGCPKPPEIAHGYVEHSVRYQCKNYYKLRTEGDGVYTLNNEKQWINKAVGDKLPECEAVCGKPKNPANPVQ
T1 sequence (P00738 162-406 partner): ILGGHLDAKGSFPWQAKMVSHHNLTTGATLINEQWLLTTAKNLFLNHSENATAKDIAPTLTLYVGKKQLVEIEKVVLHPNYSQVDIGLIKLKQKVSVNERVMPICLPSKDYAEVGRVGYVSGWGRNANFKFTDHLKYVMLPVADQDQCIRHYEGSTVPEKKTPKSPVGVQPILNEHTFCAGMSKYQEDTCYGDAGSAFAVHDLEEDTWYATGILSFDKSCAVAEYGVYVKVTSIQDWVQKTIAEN

% increase in peroxidase activity (CLmax) at 14 μg/mL: ~ 16%
SMILES: CC1(C)S[C@@H]2[C@H](NC(=O)[C@H](N)c3ccccc3)C(=O)N2[C@H]1C(=O)O [ampicillin]
